These results are taken from PubChem BioAssay (NCI).

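Tested at 5 concentrations; 48 h exposure; 96-well plates; endpoints linearly interpolated, else capped at highest concentration. At the TGI there is no net growth.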

Some test systems named below: T-47D breast; UO-31 renal; SNB-19 CNS; HCT-15 colon; SF-539 CNS; SW-620 colon; HCT-116 colon; NCI/ADR-RES ovarian; SK-MEL-5 melanoma; UACC-257 melanoma.
Test in all cases: DTP human tumour cell line panel, 48 h

In general, TGI refers to the concentration at which net growth stops. Lower therefore signals more potent growth arrest.

As to `COc1cc(/C=C2\N=C(c3ccccc3)N(c3ccc(C(=O)c4ccccc4)cc3N3C(=O)/C(=C/c4ccc(O)c(OC)c4)N=C3c3ccccc3)C2=O)ccc1O`, the total growth inhibition concentration (TGI) is 27.3 µM in the assay on T-47D breast; 27.6 µM in the assay on UO-31 renal; > 100 µM in the assay on SNB-19 CNS; 40.3 µM in the assay with HCT-15 colon; 17.2 µM in the assay on SF-539 CNS; > 100 µM with SW-620 colon. The TGI in the assay with HCT-116 colon was 23.2 µM; in the assay on NCI/ADR-RES ovarian, 89.5 µM; with SK-MEL-5 melanoma, 20.2 µM; in the assay with UACC-257 melanoma it was 39.6 µM.
As to `CCOC(=O)CCC(C(=O)OCC)n1nc2ccc(Nc3c(C)[n+]([O-])c4cc(F)c(OCC)cc4[n+]3[O-])cc2n1` (stereo not given), the concentration for total growth inhibition (TGI) is > 100 µM in the assay with T-47D breast; > 100 µM in the assay on UO-31 renal; > 100 µM with SNB-19 CNS; > 100 µM in the assay with HCT-15 colon; 63.1 µM in the assay on SF-539 CNS; > 100 µM in the assay with SW-620 colon. The TGI with HCT-116 colon, in the assay with NCI/ADR-RES ovarian, with SK-MEL-5 melanoma and in the assay with UACC-257 melanoma was > 100 µM each time.
As to `Clc1cc(Cl)c2cc3cccc[n+]3cc2c1Cl`, the concentration for total growth inhibition (TGI) with T-47D breast was determined as 23.9 µM; in the assay on UO-31 renal it was 28.4 µM; in the assay with SNB-19 CNS, 28.7 µM; in the assay on HCT-15 colon it was 36.1 µM; with SF-539 CNS it was 32.4 µM; with SW-620 colon it was 34.3 µM. Moreover, the TGI in the assay with HCT-116 colon is > 100 µM; in the assay with NCI/ADR-RES ovarian, 33.2 µM; with SK-MEL-5 melanoma, 30.5 µM; in the assay on UACC-257 melanoma, 28.9 µM.
Consider `CC(C)(C)OC(=O)N1C(OP(=O)(Oc2ccccc2)Oc2ccccc2)=CSc2ccccc21`, for which the total growth inhibition concentration (TGI) with T-47D breast, in the assay with UO-31 renal, in the assay on SNB-19 CNS, with HCT-15 colon, in the assay with SF-539 CNS and in the assay with SW-620 colon was > 100 µM throughout. For the same compound, the TGI in the assay on HCT-116 colon, with NCI/ADR-RES ovarian, in the assay with SK-MEL-5 melanoma and in the assay on UACC-257 melanoma was > 100 µM each time.
